According to ChEMBL document CHEMBL1126258, “4-[2-[Methyl(2-phenethyl)amino]-2-oxoethyl]-8-(phenylmethoxy)-2- naphthalenecarboxylic acid: a high affinity, competitive, orally active leukotriene B4 receptor antagonist” (J Med Chem, 1992):
One block for each molecule: values may come before it.

Columns and labels:
[1] = target: T1, Leukotriene B4 receptor 1 (Homo sapiens, UniProt Q15722); test: Antagonistic activity in human polymorphonuclear (PMN) LTB4 receptor; assay type: functional
[2] = Effect on LTB4-induced neutrophil function (neutrophilia) after systemic administration of 0.3 micro/kg to cynomolgus monkey.; assay type: functional, Cercopithecidae
[3] = Effect on LTB4-induced neutrophil function (neutropenia) after systemic administration of 0.3 micro/kg to cynomolgus monkey.; assay type: functional, Cercopithecidae
[4] = target: T1, Leukotriene B4 receptor 1; test: Antagonistic activity against human polymorphonuclear (PMN) LTB4 receptor; assay type: functional

T1 sequence (Q15722 whole entry): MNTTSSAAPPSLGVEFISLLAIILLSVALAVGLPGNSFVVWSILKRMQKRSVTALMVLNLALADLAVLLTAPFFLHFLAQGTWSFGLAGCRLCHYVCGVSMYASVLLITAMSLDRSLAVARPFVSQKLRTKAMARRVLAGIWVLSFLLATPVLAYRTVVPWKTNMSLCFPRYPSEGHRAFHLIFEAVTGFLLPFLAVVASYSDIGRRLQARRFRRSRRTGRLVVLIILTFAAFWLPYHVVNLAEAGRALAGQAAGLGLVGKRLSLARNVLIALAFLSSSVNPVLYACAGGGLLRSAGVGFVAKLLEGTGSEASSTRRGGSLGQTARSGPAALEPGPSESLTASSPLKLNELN

IC50 [1]: 4700 nM
SMILES: CN(CCc1ccccc1)C(=O)Cc1ccc(OCc2ccccc2)cc1

SMILES: CN(CCc1ccccc1)C(=O)Cc1cc(C(=O)O)cc2c(OCc3ccccc3)cccc12
Inhibition [2]: 73% | Inhibition [3]: 61%

IC50 [4]: 12 nM
SMILES: COc1ccc(/C=C/CCCCOc2ccc(C(=O)c3cccc(C(=O)O)c3)cc2CCC(=O)O)cc1
